Assay results reported in ChEMBL document CHEMBL1153290, “Development of multitargeted inhibitors of both the insulin-like growth factor receptor (IGF-IR) and members of the epidermal growth factor family of receptor tyrosine kinases” (Bioorg Med Chem Lett, 2009).
Active and inactive are the calls of the source. The calls are words filed in the database; no cut-off is given here.

Legend:
[1] = biological target: T1, Receptor tyrosine-protein kinase erbB-2 (Homo sapiens, UniProt P04626); assay: Inhibition of ErbB2 phosphorylation in IGF1 and EGF-stimulated human N87 cells pretreated for 6 hrs before IGF1 and EGF stimulation by ELISA; format: cell-based, NCI-N87
T1 sequence (P04626 whole entry): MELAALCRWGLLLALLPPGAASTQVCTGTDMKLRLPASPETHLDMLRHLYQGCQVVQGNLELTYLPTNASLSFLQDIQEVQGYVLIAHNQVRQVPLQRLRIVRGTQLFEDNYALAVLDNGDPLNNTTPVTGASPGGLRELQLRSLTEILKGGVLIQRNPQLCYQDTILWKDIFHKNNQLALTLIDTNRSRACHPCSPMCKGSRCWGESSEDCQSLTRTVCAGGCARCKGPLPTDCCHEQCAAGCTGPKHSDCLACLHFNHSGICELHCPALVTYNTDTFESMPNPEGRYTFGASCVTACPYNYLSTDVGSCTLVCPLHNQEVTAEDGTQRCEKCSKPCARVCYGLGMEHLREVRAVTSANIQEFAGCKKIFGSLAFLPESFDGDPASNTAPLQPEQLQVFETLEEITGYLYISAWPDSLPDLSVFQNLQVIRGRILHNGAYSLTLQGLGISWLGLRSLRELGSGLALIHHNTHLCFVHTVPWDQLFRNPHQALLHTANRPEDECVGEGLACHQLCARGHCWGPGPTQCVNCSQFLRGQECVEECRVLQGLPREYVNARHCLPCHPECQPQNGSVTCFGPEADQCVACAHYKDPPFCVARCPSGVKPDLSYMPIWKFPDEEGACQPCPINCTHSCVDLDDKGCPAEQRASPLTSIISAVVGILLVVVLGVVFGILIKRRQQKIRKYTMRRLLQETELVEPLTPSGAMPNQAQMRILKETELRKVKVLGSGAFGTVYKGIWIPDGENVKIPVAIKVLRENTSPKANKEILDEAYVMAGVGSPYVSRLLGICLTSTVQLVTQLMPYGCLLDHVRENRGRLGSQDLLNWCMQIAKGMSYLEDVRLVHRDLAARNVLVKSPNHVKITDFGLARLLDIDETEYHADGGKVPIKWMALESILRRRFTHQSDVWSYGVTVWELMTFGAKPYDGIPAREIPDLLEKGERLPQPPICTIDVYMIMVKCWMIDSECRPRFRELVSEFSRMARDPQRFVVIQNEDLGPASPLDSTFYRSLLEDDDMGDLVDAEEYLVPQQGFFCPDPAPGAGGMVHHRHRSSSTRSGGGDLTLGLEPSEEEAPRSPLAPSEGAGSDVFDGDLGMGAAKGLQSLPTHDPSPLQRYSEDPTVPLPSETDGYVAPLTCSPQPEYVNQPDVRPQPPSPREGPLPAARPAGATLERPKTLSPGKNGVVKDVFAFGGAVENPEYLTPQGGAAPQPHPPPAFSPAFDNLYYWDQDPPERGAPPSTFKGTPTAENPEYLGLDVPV

[2] = biological target: T2, Insulin-like growth factor 1 receptor (Homo sapiens, UniProt P08069); assay: Inhibition of IGF1R phosphorylation in IGF1 and EGF-stimulated human MiaPaCa2 cells pretreated for 6 hrs before IGF1 and EGF stimulation by ELISA; format: cell-based
T2 sequence (P08069 31-736 limits assumed): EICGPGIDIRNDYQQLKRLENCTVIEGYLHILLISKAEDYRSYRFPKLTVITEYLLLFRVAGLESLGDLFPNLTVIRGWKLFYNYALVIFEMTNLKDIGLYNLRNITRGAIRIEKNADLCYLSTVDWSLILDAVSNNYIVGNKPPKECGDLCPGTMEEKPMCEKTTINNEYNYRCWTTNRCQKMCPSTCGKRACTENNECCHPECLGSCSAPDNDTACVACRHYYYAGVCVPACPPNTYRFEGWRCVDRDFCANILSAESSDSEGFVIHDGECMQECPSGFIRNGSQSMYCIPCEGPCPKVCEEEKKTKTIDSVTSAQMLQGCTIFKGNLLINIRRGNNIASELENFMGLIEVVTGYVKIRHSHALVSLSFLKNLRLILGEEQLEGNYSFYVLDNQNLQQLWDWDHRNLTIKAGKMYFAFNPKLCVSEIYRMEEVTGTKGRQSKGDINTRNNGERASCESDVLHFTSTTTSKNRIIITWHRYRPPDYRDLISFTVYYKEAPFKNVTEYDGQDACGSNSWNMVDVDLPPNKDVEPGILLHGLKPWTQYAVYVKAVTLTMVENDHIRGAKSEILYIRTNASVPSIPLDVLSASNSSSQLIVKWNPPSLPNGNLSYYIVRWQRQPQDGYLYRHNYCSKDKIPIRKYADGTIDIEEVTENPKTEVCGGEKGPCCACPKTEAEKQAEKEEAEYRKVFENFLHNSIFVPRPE
T2 sequence (P08069 741-1367 limits assumed): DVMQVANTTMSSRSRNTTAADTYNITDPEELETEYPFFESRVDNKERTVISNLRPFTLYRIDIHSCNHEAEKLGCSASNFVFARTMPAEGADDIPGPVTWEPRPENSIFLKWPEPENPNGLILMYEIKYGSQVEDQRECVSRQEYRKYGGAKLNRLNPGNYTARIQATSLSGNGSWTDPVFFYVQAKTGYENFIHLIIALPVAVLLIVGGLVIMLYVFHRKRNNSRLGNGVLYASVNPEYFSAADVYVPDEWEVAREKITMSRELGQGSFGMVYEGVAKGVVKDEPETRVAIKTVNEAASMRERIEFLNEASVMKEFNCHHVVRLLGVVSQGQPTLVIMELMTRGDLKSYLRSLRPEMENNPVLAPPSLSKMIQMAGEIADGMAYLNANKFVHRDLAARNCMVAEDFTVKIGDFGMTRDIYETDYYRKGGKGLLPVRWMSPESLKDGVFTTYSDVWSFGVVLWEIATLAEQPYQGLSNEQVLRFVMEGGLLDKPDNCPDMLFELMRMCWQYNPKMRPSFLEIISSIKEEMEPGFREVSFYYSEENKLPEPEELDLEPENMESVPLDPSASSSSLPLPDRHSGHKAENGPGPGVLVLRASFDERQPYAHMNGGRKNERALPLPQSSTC

[3] = biological target: T2, Insulin-like growth factor 1 receptor; assay: Inhibition of IGF1R by time resolved fluorescence assay
[4] = biological target: Epidermal growth factor receptor (Homo sapiens, UniProt P00533, L858R)
Epidermal growth factor receptor (Homo sapiens, UniProt P00533, L858R), sequence (P00533 25-1210 L858R limits assumed): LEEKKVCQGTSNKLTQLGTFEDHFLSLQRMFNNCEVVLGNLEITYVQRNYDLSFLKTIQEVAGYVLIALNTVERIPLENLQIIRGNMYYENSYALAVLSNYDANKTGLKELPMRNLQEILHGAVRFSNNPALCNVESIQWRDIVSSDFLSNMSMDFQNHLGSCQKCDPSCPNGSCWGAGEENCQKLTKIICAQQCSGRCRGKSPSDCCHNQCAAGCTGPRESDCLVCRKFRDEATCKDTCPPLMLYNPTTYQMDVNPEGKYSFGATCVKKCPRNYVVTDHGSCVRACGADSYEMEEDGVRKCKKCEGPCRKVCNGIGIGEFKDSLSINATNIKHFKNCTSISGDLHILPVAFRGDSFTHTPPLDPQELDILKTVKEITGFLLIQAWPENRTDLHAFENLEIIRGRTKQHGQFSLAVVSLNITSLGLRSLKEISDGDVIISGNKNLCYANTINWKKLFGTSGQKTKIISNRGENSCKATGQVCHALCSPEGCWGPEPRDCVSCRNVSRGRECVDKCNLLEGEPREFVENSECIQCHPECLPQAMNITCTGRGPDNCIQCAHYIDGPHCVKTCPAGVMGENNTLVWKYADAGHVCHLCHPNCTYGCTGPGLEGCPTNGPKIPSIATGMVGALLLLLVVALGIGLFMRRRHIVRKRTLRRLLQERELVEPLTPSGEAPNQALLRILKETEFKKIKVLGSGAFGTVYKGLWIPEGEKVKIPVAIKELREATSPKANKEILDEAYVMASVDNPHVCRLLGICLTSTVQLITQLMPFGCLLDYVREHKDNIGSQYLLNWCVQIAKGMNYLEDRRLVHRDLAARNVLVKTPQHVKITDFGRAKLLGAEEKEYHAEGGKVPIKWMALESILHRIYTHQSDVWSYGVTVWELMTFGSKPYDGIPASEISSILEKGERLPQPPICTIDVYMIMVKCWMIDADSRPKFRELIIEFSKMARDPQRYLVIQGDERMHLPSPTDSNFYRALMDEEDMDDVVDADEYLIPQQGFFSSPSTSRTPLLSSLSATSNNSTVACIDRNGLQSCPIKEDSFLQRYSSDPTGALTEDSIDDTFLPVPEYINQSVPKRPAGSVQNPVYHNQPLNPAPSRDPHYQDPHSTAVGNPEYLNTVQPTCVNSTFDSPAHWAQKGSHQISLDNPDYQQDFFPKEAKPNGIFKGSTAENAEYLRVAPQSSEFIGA

[5] = biological target: Epidermal growth factor receptor (Homo sapiens, UniProt P00533); assay: Inhibition of EGFR phosphorylation in IGF1 and EGF-stimulated human MiaPaCa2 cells pretreated for 6 hrs before IGF1 and EGF stimulation by ELISA; format: cell-based
Epidermal growth factor receptor (Homo sapiens, UniProt P00533), sequence (P00533 whole entry): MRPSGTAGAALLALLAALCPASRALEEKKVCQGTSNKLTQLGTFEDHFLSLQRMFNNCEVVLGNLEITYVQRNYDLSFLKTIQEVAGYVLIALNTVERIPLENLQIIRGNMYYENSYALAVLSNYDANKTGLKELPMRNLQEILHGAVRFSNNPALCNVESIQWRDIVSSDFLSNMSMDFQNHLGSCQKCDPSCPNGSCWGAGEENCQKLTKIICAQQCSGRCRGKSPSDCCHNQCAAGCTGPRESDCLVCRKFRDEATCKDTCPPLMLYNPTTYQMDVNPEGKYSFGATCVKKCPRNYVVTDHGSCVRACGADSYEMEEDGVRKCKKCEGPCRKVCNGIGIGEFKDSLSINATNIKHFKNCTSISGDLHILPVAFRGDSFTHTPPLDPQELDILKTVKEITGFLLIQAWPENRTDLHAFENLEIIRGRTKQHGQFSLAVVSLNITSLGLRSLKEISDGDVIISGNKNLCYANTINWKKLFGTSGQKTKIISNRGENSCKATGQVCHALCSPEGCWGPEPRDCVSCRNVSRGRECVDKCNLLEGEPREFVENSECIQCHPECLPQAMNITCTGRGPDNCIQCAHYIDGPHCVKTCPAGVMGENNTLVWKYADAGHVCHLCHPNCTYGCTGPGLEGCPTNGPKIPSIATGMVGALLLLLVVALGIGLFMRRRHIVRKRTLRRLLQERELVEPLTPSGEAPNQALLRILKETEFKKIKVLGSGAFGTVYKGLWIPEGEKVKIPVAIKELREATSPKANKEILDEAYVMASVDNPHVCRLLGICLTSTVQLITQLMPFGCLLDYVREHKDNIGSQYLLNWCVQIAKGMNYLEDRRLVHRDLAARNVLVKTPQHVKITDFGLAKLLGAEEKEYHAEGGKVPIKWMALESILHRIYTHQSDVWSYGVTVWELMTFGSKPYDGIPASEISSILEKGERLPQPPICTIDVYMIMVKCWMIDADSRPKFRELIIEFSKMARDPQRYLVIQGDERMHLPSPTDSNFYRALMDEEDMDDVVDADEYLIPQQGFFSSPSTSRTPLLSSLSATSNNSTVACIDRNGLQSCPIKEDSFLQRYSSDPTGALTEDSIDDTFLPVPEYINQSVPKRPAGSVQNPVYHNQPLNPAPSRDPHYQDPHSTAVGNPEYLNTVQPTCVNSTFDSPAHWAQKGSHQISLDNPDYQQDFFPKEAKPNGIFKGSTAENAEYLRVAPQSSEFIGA

[6] = biological target: T1, Receptor tyrosine-protein kinase erbB-2; assay: Inhibition of ErbB2 by time resolved fluorescence assay
[7] = Clearance in mouse; format: ADME, organism-based; conditions: in vivo
Mus musculus [8] = assay: Inhibition of IGF1R phosphorylation in IGF1 and EGF-stimulated mouse lung at 50 mg/kg, po pretreated 4 hrs before IGF1 and EGF stimulation; format: functional, organism-based; design: dose 50 mg/kg
Mus musculus [9] = assay: Inhibition of IGF1R phosphorylation in IGF1 and EGF-stimulated mouse lung at 50 mg/kg, ip pretreated 4 hrs before IGF1 and EGF stimulation; format: functional, organism-based; design: dose 50 mg/kg
[10] = Half life in mouse; format: ADME, organism-based; conditions: in vivo
Cytochrome P450 2C9 = Cytochrome P450 2C9 (Homo sapiens, UniProt P11712); assay: Inhibition of human CYP2C9; format: ADME
Mus musculus [11] = assay: Inhibition of EGFR phosphorylation in IGF1 and EGF-stimulated mouse liver at 50 mg/kg, po pretreated 4 hrs before IGF1 and EGF stimulation; format: functional, organism-based; design: dose 50 mg/kg
Cytochrome P450 2D6 = Cytochrome P450 2D6 (Homo sapiens, UniProt P10635); assay: Inhibition of human CYP2D6; format: ADME
Cytochrome P450 3A4 = Cytochrome P450 3A4 (Homo sapiens, UniProt P08684); assay: Inhibition of human CYP3A4; format: ADME
[12] = Oral bioavailability in mouse; format: ADME, organism-based; conditions: in vivo
Mus musculus [13] = assay: Inhibition of EGFR phosphorylation in IGF1 and EGF-stimulated mouse liver at 50 mg/kg, ip pretreated 4 hrs before IGF1 and EGF stimulation; format: functional, organism-based; design: dose 50 mg/kg
[14] = Aqueous solubility at pH 7.2; format: physicochemical; conditions: buffer
[15] = Protein binding in human plasma; format: ADME, cell-free; conditions: read-out: PPB (converted)
[16] = Bioavailability in ip dosed mouse; format: ADME, organism-based; conditions: in vivo
Mus musculus [17] = assay: Dose normalized AUC in iv dosed mouse; format: ADME, organism-based; conditions: in vivo
Mus musculus [18] = assay: Dose normalized AUC in ip dosed mouse; format: ADME, organism-based; conditions: in vivo
Mus musculus [19] = assay: Dose normalized AUC in po dosed mouse; format: ADME, organism-based; conditions: in vivo

| SMILES | EC50 [1] | EC50 [2] | IC50 [3] | IC50 [4] | EC50 [5] | IC50 [6] | other results |
| --- | --- | --- | --- | --- | --- | --- | --- |
| COc1ccccc1Cc1nc2ccc(-c3nn([C@H]4CC[C@H](N5CCN(C(=O)N(C)C)CC5)CC4)c4ncnc(N)c34)cc2[nH]1 | 1580 nM | 208 nM | 69 nM | 25 nM | 808 nM | 17 nM |  |
| COc1ccccc1Cc1nc2ccc(-c3nn([C@H]4CC[C@H](N5CCN(C(C)=O)CC5)CC4)c4ncnc(N)c34)cc2[nH]1 | 660 nM | 143 nM | 27 nM | 130 nM | 742 nM | 59 nM |  |
| Nc1ncnc2c1c(-c1ccc3nc(Cc4ccccc4)[nH]c3c1)nn2[C@H]1CC[C@H](N2CCOCC2)CC1 |  |  |  | 270 nM |  | 186 nM |  |
| COc1ccccc1Cc1nc2ccc(-c3nn([C@H]4CC[C@H](N5CCOCC5)CC4)c4ncnc(N)c34)cc2[nH]1 |  |  |  |  |  | 53 nM |  |
| COc1ccccc1Cc1nc2ccc(-c3nn([C@H]4CC[C@H](N5CCN(CC6CC6)CC5)CC4)c4ncnc(N)c34)cc2[nH]1 | 147 nM | 190 nM | 40 nM | 3 nM | 91 nM | 13 nM |  |
| COc1ccccc1Cc1nc2ccc(-c3nn([C@H]4CC[C@H](N5CCNCC5)CC4)c4ncnc(N)c34)cc2[nH]1 | 210 nM | 711 nM | 26 nM | 30 nM | 335 nM | 44 nM |  |
| CCOC(=O)N1CCN([C@H]2CC[C@H](n3nc(-c4ccc5nc(Cc6ccccc6OC)[nH]c5c4)c4c(N)ncnc43)CC2)CC1 | 1600 nM | 247 nM | 309 nM | 30 nM | 520 nM | 270 nM |  |
| COCCCN1CCN([C@H]2CC[C@H](n3nc(-c4ccc5nc(Cc6ccccc6OC)[nH]c5c4)c4c(N)ncnc43)CC2)CC1 | 94 nM | 115 nM | 81 nM | 58 nM | 85 nM | 54 nM | clearance [7]: 7.83 mL/min/kg; inhibition (Mus musculus [8]): Active; inhibition (Mus musculus [9]): Active; half-life [10]: 3.1 h; IC50 (Cytochrome P450 2C9): > 20000 nM; inhibition (Mus musculus [11]): Active; IC50 (Cytochrome P450 2D6): 1600 nM; IC50 (Cytochrome P450 3A4): > 20000 nM; bioavailability [12]: 12%; inhibition (Mus musculus [13]): Active; solubility [14]: > 30 µM; fraction unbound [15]: 0.033; bioavailability [16]: 100%; AUC (Mus musculus [17]): 3.5 µmol·h/L/mg/kg; AUC (Mus musculus [18]): 2.71 µmol·h/L/mg/kg; AUC (Mus musculus [19]): 0.42 µmol·h/L/mg/kg |
| Nc1ncnc2c1c(-c1ccc3nc(Cc4ccccc4Cl)[nH]c3c1)nn2[C@H]1CC[C@H](N2CCOCC2)CC1 |  |  | 36 nM | 65 nM |  | 664 nM |  |
| Nc1ncnc2c1c(-c1ccc3nc(Cc4cccs4)[nH]c3c1)nn2[C@H]1CC[C@H](N2CCOCC2)CC1 |  |  | 25 nM | 361 nM |  | 250 nM |  |
